# Results reported in patent US20260130395A1, “Water Dispersible Botanical Compositions” (Aquila Black Limited, priority 2021, published 2026).
# Experiment: Stability of cannabinoid compounds and Vitamin E components in Beverage 2 (AB Red) by LCMSMS
# Assay type: physicochemical
structure (smiles),measurement,setting,value
"CCCCCc1cc(O)c2c(c1)OC(C)(C)[C@@H]1CCC(C)=C[C@@H]21 [D9 THC, delta-9-tetrahydrocannabinol, reference compound]",stability over the entire period (in words),"AB Red stored at 8° C., 570 days",high degree of stability
same,stability over the entire period (in words),"AB Red stored at 21-25° C., 570 days",high degree of stability
same,Stability of Plant-Derived Cannabinoid Compounds in AB Red,"stored at 8° C., 0 days",12.9 µg/mL
same,Stability of Plant-Derived Cannabinoid Compounds in AB Red,"stored at 8° C., 1 days",13.0 µg/mL
same,Stability of Plant-Derived Cannabinoid Compounds in AB Red,"stored at 8° C., 2 days",13.0 µg/mL
same,Stability of Plant-Derived Cannabinoid Compounds in AB Red,"stored at 8° C., 3 days",12.7 µg/mL
same,Stability of Plant-Derived Cannabinoid Compounds in AB Red,"stored at 8° C., 5 days",13.0 µg/mL
same,Stability of Plant-Derived Cannabinoid Compounds in AB Red,"stored at 8° C., 8 days",12.6 µg/mL
same,Stability of Plant-Derived Cannabinoid Compounds in AB Red,"stored at 8° C., 9 days",12.7 µg/mL
same,Stability of Plant-Derived Cannabinoid Compounds in AB Red,"stored at 8° C., 10 days",12.8 µg/mL
same,Stability of Plant-Derived Cannabinoid Compounds in AB Red,"stored at 8° C., 11 days",12.8 µg/mL
same,Stability of Plant-Derived Cannabinoid Compounds in AB Red,"stored at 8° C., 12 days",12.9 µg/mL
same,Stability of Plant-Derived Cannabinoid Compounds in AB Red,"stored at 8° C., 15 days",12.9 µg/mL
same,Stability of Plant-Derived Cannabinoid Compounds in AB Red,"stored at 8° C., 16 days",12.7 µg/mL
same,Stability of Plant-Derived Cannabinoid Compounds in AB Red,"stored at 8° C., 17 days",12.6 µg/mL
same,Stability of Plant-Derived Cannabinoid Compounds in AB Red,"stored at 8° C., 18 days",12.8 µg/mL
same,Stability of Plant-Derived Cannabinoid Compounds in AB Red,"stored at 8° C., 19 days",12.7 µg/mL
same,Stability of Plant-Derived Cannabinoid Compounds in AB Red,"stored at 8° C., 22 days",12.7 µg/mL
same,Stability of Plant-Derived Cannabinoid Compounds in AB Red,"stored at 8° C., 23 days",12.9 µg/mL
same,Stability of Plant-Derived Cannabinoid Compounds in AB Red,"stored at 8° C., 24 days",12.9 µg/mL
same,Stability of Plant-Derived Cannabinoid Compounds in AB Red,"stored at 8° C., 25 days",12.9 µg/mL
same,Stability of Plant-Derived Cannabinoid Compounds in AB Red,"stored at 8° C., 26 days",12.7 µg/mL
same,Stability of Plant-Derived Cannabinoid Compounds in AB Red,"stored at 8° C., 29 days",12.7 µg/mL
same,Stability of Plant-Derived Cannabinoid Compounds in AB Red,"stored at 8° C., 30 days",12.9 µg/mL
same,Stability of Plant-Derived Cannabinoid Compounds in AB Red,"stored at 8° C., 60 days",12.5 µg/mL
same,Stability of Plant-Derived Cannabinoid Compounds in AB Red,"stored at 8° C., 90 days",13.0 µg/mL
same,Stability of Plant-Derived Cannabinoid Compounds in AB Red,"stored at 8° C., 120 days",12.4 µg/mL
same,Stability of Plant-Derived Cannabinoid Compounds in AB Red,"stored at 8° C., 150 days",12.8 µg/mL
same,Stability of Plant-Derived Cannabinoid Compounds in AB Red,"stored at 8° C., 180 days",12.6 µg/mL
same,Stability of Plant-Derived Cannabinoid Compounds in AB Red,"stored at 8° C., 210 days",12.3 µg/mL
same,Stability of Plant-Derived Cannabinoid Compounds in AB Red,"stored at 8° C., 240 days",12.4 µg/mL
same,Stability of Plant-Derived Cannabinoid Compounds in AB Red,"stored at 8° C., 270 days",12.6 µg/mL
same,Stability of Plant-Derived Cannabinoid Compounds in AB Red,"stored at 8° C., 300 days",12.4 µg/mL
same,Stability of Plant-Derived Cannabinoid Compounds in AB Red,"stored at 8° C., 330 days",12.7 µg/mL
same,Stability of Plant-Derived Cannabinoid Compounds in AB Red,"stored at 8° C., 360 days",12.5 µg/mL
same,Stability of Plant-Derived Cannabinoid Compounds in AB Red,"stored at 8° C., 390 days",12.4 µg/mL
same,Stability of Plant-Derived Cannabinoid Compounds in AB Red,"stored at 8° C., 420 days",12.4 µg/mL
same,Stability of Plant-Derived Cannabinoid Compounds in AB Red,"stored at 8° C., 450 days",12.4 µg/mL
same,Stability of Plant-Derived Cannabinoid Compounds in AB Red,"stored at 8° C., 480 days",12.2 µg/mL
same,Stability of Plant-Derived Cannabinoid Compounds in AB Red,"stored at 8° C., 510 days",12.0 µg/mL
same,Stability of Plant-Derived Cannabinoid Compounds in AB Red,"stored at 8° C., 540 days",11.9 µg/mL
same,Stability of Plant-Derived Cannabinoid Compounds in AB Red,"stored at 8° C., 570 days",11.8 µg/mL
same,Stability of Plant-Derived Cannabinoid Compounds in AB Red,"stored at 21-25° C., 0 days",12.9 µg/mL
same,Stability of Plant-Derived Cannabinoid Compounds in AB Red,"stored at 21-25° C., 1 days",13.0 µg/mL
same,Stability of Plant-Derived Cannabinoid Compounds in AB Red,"stored at 21-25° C., 2 days",13.0 µg/mL
same,Stability of Plant-Derived Cannabinoid Compounds in AB Red,"stored at 21-25° C., 3 days",12.6 µg/mL
same,Stability of Plant-Derived Cannabinoid Compounds in AB Red,"stored at 21-25° C., 5 days",12.4 µg/mL
same,Stability of Plant-Derived Cannabinoid Compounds in AB Red,"stored at 21-25° C., 8 days",12.7 µg/mL
same,Stability of Plant-Derived Cannabinoid Compounds in AB Red,"stored at 21-25° C., 9 days",12.8 µg/mL
same,Stability of Plant-Derived Cannabinoid Compounds in AB Red,"stored at 21-25° C., 10 days",12.5 µg/mL
same,Stability of Plant-Derived Cannabinoid Compounds in AB Red,"stored at 21-25° C., 11 days",12.9 µg/mL
same,Stability of Plant-Derived Cannabinoid Compounds in AB Red,"stored at 21-25° C., 12 days",13.0 µg/mL
same,Stability of Plant-Derived Cannabinoid Compounds in AB Red,"stored at 21-25° C., 15 days",12.7 µg/mL
same,Stability of Plant-Derived Cannabinoid Compounds in AB Red,"stored at 21-25° C., 16 days",12.4 µg/mL
same,Stability of Plant-Derived Cannabinoid Compounds in AB Red,"stored at 21-25° C., 17 days",12.9 µg/mL
same,Stability of Plant-Derived Cannabinoid Compounds in AB Red,"stored at 21-25° C., 18 days",12.8 µg/mL
same,Stability of Plant-Derived Cannabinoid Compounds in AB Red,"stored at 21-25° C., 19 days",12.8 µg/mL
same,Stability of Plant-Derived Cannabinoid Compounds in AB Red,"stored at 21-25° C., 22 days",12.9 µg/mL
same,Stability of Plant-Derived Cannabinoid Compounds in AB Red,"stored at 21-25° C., 23 days",12.9 µg/mL
same,Stability of Plant-Derived Cannabinoid Compounds in AB Red,"stored at 21-25° C., 24 days",12.5 µg/mL
same,Stability of Plant-Derived Cannabinoid Compounds in AB Red,"stored at 21-25° C., 25 days",12.5 µg/mL
same,Stability of Plant-Derived Cannabinoid Compounds in AB Red,"stored at 21-25° C., 26 days",12.4 µg/mL
same,Stability of Plant-Derived Cannabinoid Compounds in AB Red,"stored at 21-25° C., 29 days",12.7 µg/mL
same,Stability of Plant-Derived Cannabinoid Compounds in AB Red,"stored at 21-25° C., 30 days",12.4 µg/mL
same,Stability of Plant-Derived Cannabinoid Compounds in AB Red,"stored at 21-25° C., 60 days",12.2 µg/mL
same,Stability of Plant-Derived Cannabinoid Compounds in AB Red,"stored at 21-25° C., 90 days",12.8 µg/mL
same,Stability of Plant-Derived Cannabinoid Compounds in AB Red,"stored at 21-25° C., 120 days",12.4 µg/mL
same,Stability of Plant-Derived Cannabinoid Compounds in AB Red,"stored at 21-25° C., 150 days",12.4 µg/mL
same,Stability of Plant-Derived Cannabinoid Compounds in AB Red,"stored at 21-25° C., 180 days",12.8 µg/mL
same,Stability of Plant-Derived Cannabinoid Compounds in AB Red,"stored at 21-25° C., 210 days",12.4 µg/mL
same,Stability of Plant-Derived Cannabinoid Compounds in AB Red,"stored at 21-25° C., 240 days",12.5 µg/mL
same,Stability of Plant-Derived Cannabinoid Compounds in AB Red,"stored at 21-25° C., 270 days",12.5 µg/mL
same,Stability of Plant-Derived Cannabinoid Compounds in AB Red,"stored at 21-25° C., 300 days",12.4 µg/mL
same,Stability of Plant-Derived Cannabinoid Compounds in AB Red,"stored at 21-25° C., 330 days",12.1 µg/mL
same,Stability of Plant-Derived Cannabinoid Compounds in AB Red,"stored at 21-25° C., 360 days",12.6 µg/mL
same,Stability of Plant-Derived Cannabinoid Compounds in AB Red,"stored at 21-25° C., 390 days",12.1 µg/mL
same,Stability of Plant-Derived Cannabinoid Compounds in AB Red,"stored at 21-25° C., 420 days",12.2 µg/mL
same,Stability of Plant-Derived Cannabinoid Compounds in AB Red,"stored at 21-25° C., 450 days",12.2 µg/mL
same,Stability of Plant-Derived Cannabinoid Compounds in AB Red,"stored at 21-25° C., 480 days",11.8 µg/mL
same,Stability of Plant-Derived Cannabinoid Compounds in AB Red,"stored at 21-25° C., 510 days",12.3 µg/mL
same,Stability of Plant-Derived Cannabinoid Compounds in AB Red,"stored at 21-25° C., 540 days",12.2 µg/mL
same,Stability of Plant-Derived Cannabinoid Compounds in AB Red,"stored at 21-25° C., 570 days",11.8 µg/mL
